This experiment concerns the target T1, Recombinant human legumain (Homo sapiens, UniProt Q99538).
T1 construct: purchased R&D systems
T1 sequence (Q99538 18-433): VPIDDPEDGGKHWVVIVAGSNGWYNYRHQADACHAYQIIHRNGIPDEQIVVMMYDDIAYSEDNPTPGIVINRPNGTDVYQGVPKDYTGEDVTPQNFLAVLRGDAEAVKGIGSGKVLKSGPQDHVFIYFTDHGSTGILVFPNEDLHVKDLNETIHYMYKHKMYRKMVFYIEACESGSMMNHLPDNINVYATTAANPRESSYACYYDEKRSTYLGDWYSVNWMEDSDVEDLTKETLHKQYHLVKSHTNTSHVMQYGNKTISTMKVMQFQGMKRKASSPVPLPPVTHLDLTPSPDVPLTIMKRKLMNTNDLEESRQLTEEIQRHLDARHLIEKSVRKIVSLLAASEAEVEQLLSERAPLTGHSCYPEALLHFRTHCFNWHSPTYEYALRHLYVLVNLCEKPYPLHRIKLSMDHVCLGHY
Put plainly: legumain- and GSH-triggered cleavage and condensation in solution (Raman, HPLC, MALDI). Format: biochemical. The note with it: 37 °C. On the procedure: The detailed synthetic procedures and characterization of the nanoSABER probe are given in Scheme S1 and Figures S1 and S2 (Supporting Information), respectively. The Raman signatures of nanoSABER (Figure 2a) display the vibrational stretching frequencies of alkyne and nitrile at 2121 and 2230 cm^−1, respectively. The ratio of alkyne/nitrile Raman peak intensity in the nanoSABER solutions was measured to be 0.21±0.04. Next, we studied the cleavage of the nanoSABER probe by legumain, leading to the formation of supramolecular self‐assembled nanoparticles. This was verified using high‐resolution matrix‐assisted laser desorption/ionization–time‐of‐flight mass spectrometry (MALDI), RS, and high‐performance liquid chromatography (HPLC). We first incubated 25 µM of nanoSABER probe with 250 µM GSH for 2 h at 37 °C. This reduced the disulfide bond of D‐cysteine, producing reduced nanoSABER, which was identified using HPLC and MALDI by the appearance of a peak at a retention time of 16.5 min (Figure 2b) and an observed mass of 1737.5 (Figure 2c). When nanoSABER was co‐incubated with 250 µM GSH and 3 µL (10 µg/50 µL) legumain enzyme for 3 h at 37 °C, the reduced nanoSABER that was generated in situ reacted with the legumain enzyme to form an active cleaved intermediate. The latter underwent intermolecular condensation to yield the alkyne‐dimer. […] Both HPLC fractions were collected and characterized by MALDI.
Figure 2 Optical and structural properties of nanoSABER (R6‐AAN‐alkyne‐nitrile) and alkyne‐dimer. a) Raman spectra of R6AAN‐alkyne and nanoSABER showing the alkyne and nitrile vibrational stretching frequency at 2121 cm^−1 and 2230 cm^−1, respectively, expressed as the mean ± standard deviation for n = 22 independent in vitro measurements. b) HPLC chromatogram of 250 µM nanoSABER (red) and 250 µM nanoSABER + 1 mM GSH incubated for 3 h (green), and 250 µM nanoSABER + 1 mM GSH + 3 µL (10 µg/50 µL) legumain incubated for 3 h (blue). c–e) HR‐MALDI‐TOF/MS spectra of reduced nanoSABER, cleaved R6‐AAN, and alkyne‐dimer. f) Raman spectra of 250 µM nanoSABER + 1 mM GSH + 3 µL (10 µg/50 µL) legumain incubated for 3 h, shown as the mean with a standard deviation of n = 22 independent in vitro measurements. g) Enzymatic conversion ratios of 250 µM nanoSABER in the presence of 1 mM GSH and 3 µL (10 µg/50 µL) legumain enzyme as a function of time, as calculated from the alkyne/nitrile Raman peak intensity ratio. h,i) TEM and DLS of alkyne‐dimer nanoparticles (red circles) after incubation of 250 µM nanoSABER + 1 mM GSH + 3 µL (10 µg/50 µL) legumain for 3 h at 37 °C. All subpanels reflect representative data from i n vitro experiments repeated three times unless stated.
To accurately evaluate the efficiency of the R6‐AAN‐alkyne‐nitrile nanoprobe, time‐dependent Raman measurements were performed (Figure 2g), where the ratio of alkyne/nitrile peak intensity was used as an indicator of the reaction progress. We found as the reaction progressed the alkyne/nitrile peak intensity increased from 0.22±0.01 to 4.4±0.12 and plateaued at a final value of 4.6±0.12 indicating almost complete conversion of nanoSABER to alkyne‐dimer within 3 h. […] To further get insight into the structural arrangements of the self‐assembled dimers, transmission electron microscopy (TEM) was performed. […]

Regarding “Ac‐Arg‐Arg‐Arg‐Arg‐Arg‐Arg‐Ala‐Ala‐Asn‐Cys(StBu)‐Pra‐Lys‐CBT [nanoSABER]”, the “cleavage and condensation by legumain (HPLC retention time and MALDI mass)” value (250 µM + 1 mM GSH + 3 µL (10 µg/50 µL) legumain, 3 h) is recorded as “efficiently cleaved by legumain”. Moreover, where the note is “250 µM nanoSABER + 1 mM GSH + 3 µL (10 µg/50 µL) legumain, from the alkyne/nitrile Raman ratio”, the “time to almost complete conversion to alkyne-dimer” value was not above 3 h. In addition, under “250 µM nanoSABER + 1 mM GSH + 3 µL (10 µg/50 µL) legumain, time-dependent Raman, initial value”, the “alkyne/nitrile peak intensity ratio, start of reaction” value is reported as 0.22±0.01. For the same substance, the “alkyne/nitrile peak intensity ratio, plateau final value” (250 µM nanoSABER + 1 mM GSH + 3 µL (10 µg/50 µL) legumain, time-dependent Raman, plateau) was 4.6±0.12. Further, the “alkyne/nitrile peak intensity ratio, as the reaction progressed” value (250 µM nanoSABER + 1 mM GSH + 3 µL (10 µg/50 µL) legumain, time-dependent Raman, value reached before plateau) is 4.4±0.12.
